From PubChem BioAssay (NCI)
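Test compounds were applied to cells in 96-well plates for 48 hours at 5 doses. GI50 marks 50% less growth. TGI marks complete inhibition of growth.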

Key:
Assay in all cases: NCI tumour cell line growth inhibition, 48 h
[1] = tested on: HCC-2998 colon
[2] = tested on: CCRF-CEM leukemia
[3] = tested on: HT29 colon
[4] = tested on: RPMI-8226 leukemia
[5] = tested on: OVCAR-3 ovarian
[6] = tested on: SN12C renal
[7] = tested on: SF-539 CNS
[8] = tested on: MALME-3M melanoma
[9] = tested on: MDA-MB-231 breast
[10] = tested on: M14 melanoma
[11] = tested on: KM12 colon
[12] = tested on: SK-MEL-28 melanoma
[13] = tested on: DU-145 prostate
[14] = tested on: RXF 393 renal
[15] = tested on: A498 renal
[16] = tested on: EKVX NSCLC
[17] = tested on: HOP-62 NSCLC
[18] = tested on: SW-620 colon
[19] = tested on: OVCAR-5 ovarian
[20] = tested on: HCT-116 colon
[21] = tested on: SF-295 CNS
[22] = tested on: T-47D breast
[23] = tested on: NCI-H460 lung
[24] = tested on: UACC-62 melanoma
[25] = tested on: ACHN renal
[26] = tested on: PC-3 prostate
[27] = tested on: SNB-75 CNS
[28] = tested on: SK-OV-3 ovarian
[29] = tested on: SF-268 CNS
[30] = tested on: CAKI-1 renal
[31] = tested on: NCI-H226 lung
[32] = tested on: SK-MEL-2 melanoma
[33] = tested on: MCF7 breast
[34] = tested on: IGROV1 ovarian
[35] = tested on: HOP-92 NSCLC
[36] = tested on: NCI/ADR-RES ovarian
[37] = tested on: A549 NSCLC
[38] = tested on: COLO 205 colon
[39] = tested on: UACC-257 melanoma
[40] = tested on: MDA-MB-435
[41] = tested on: BT-549 breast
[42] = tested on: 786-0 renal
[43] = tested on: SNB-19 CNS
[44] = tested on: TK-10 renal
[45] = tested on: SK-MEL-5 melanoma
[46] = tested on: MOLT-4 leukemia
[47] = tested on: NCI-H23 lung
[48] = tested on: U251 CNS
[49] = tested on: OVCAR-4 ovarian
[50] = tested on: OVCAR-8 ovarian
[51] = tested on: HCT-15 colon
[52] = tested on: K-562 leukemia
[53] = tested on: UO-31 renal
[54] = tested on: HL-60(TB) leukemia
[55] = tested on: LOX IMVI melanoma
[56] = tested on: HS 578T breast
[57] = tested on: NCI-H522 lung
[58] = tested on: SR leukemia

COCCn1cc(-c2nc(-c3cc4cccnc4[nH]3)cs2)c2cc(OC)ccc21
GI50 [1]: 3.68 µM | TGI [1]: 97.4 µM | GI50 [2]: 4.54 µM | TGI [2]: > 100 µM | GI50 [3]: 3.71 µM | TGI [3]: > 81.2 µM | GI50 [4]: 3.94 µM | TGI [4]: > 36.2 µM | GI50 [5]: 4.28 µM | TGI [5]: 21.7 µM | GI50 [6]: 4.64 µM | TGI [6]: > 100 µM | GI50 [7]: 3.39 µM | TGI [7]: 42 µM | GI50 [8]: 7.99 µM | TGI [8]: > 80.6 µM | GI50 [9]: 1.76 µM | TGI [9]: > 79.9 µM | GI50 [10]: 4.8 µM | TGI [10]: > 100 µM | GI50 [11]: 0.203 µM | TGI [11]: 9.38 µM | GI50 [12]: 5.21 µM | TGI [12]: > 100 µM | GI50 [13]: 3.96 µM | TGI [13]: 56.1 µM | GI50 [14]: 0.95 µM | TGI [14]: 5.41 µM | GI50 [15]: 1.86 µM | TGI [15]: 6.18 µM | GI50 [16]: 0.0827 µM | TGI [16]: 4.43 µM | GI50 [17]: 2.2 µM | TGI [17]: 9.36 µM | GI50 [18]: 4.04 µM | TGI [18]: > 100 µM | GI50 [19]: 0.524 µM | TGI [19]: > 96.4 µM | GI50 [20]: 3.49 µM | TGI [20]: 16 µM | GI50 [21]: 2.24 µM | TGI [21]: 6.54 µM | GI50 [22]: 0.033 µM | TGI [22]: 0.992 µM | GI50 [23]: 1.1 µM | TGI [23]: 12.9 µM | GI50 [24]: 4.22 µM | TGI [24]: 31.3 µM | GI50 [25]: 2.61 µM | TGI [25]: > 100 µM | GI50 [26]: 3.13 µM | TGI [26]: 13.3 µM | GI50 [27]: 1.22 µM | TGI [27]: 5.83 µM | GI50 [28]: 3.04 µM | TGI [28]: 11.6 µM | GI50 [29]: 3.82 µM | TGI [29]: > 100 µM | GI50 [30]: 3.01 µM | TGI [30]: > 82.4 µM | GI50 [31]: 1.57 µM | TGI [31]: 27.6 µM | GI50 [32]: 3.05 µM | TGI [32]: 12.8 µM | GI50 [33]: 0.0433 µM | TGI [33]: 2.67 µM | GI50 [34]: 0.81 µM | TGI [34]: > 34.5 µM | GI50 [35]: 0.387 µM | TGI [35]: 2.46 µM | GI50 [36]: 2.95 µM | TGI [36]: 23.8 µM | GI50 [37]: 3.79 µM | TGI [37]: > 100 µM | GI50 [38]: 4.01 µM | TGI [38]: 24.7 µM | GI50 [39]: 4.26 µM | TGI [39]: 9.81 µM | GI50 [40]: 5.27 µM | TGI [40]: > 100 µM | GI50 [41]: 1.8 µM | TGI [41]: 7.66 µM | GI50 [42]: 3.04 µM | TGI [42]: 20.9 µM | GI50 [43]: 6.48 µM | TGI [43]: > 100 µM | GI50 [44]: 1.07 µM | TGI [44]: 10.7 µM | GI50 [45]: 4.47 µM | TGI [45]: 21.4 µM | GI50 [46]: 4.24 µM | TGI [46]: > 46.7 µM | GI50 [47]: 1.5 µM | TGI [47]: 10.8 µM | GI50 [48]: 3.6 µM | TGI [48]: > 59.3 µM | GI50 [49]: 0.0278 µM | TGI [49]: > 30.8 µM | GI50 [50]: 3.56 µM | TGI [50]: 45.3 µM | GI50 [51]: 2.26 µM | TGI [51]: 21.5 µM | GI50 [52]: 3.48 µM | TGI [52]: > 27.3 µM | GI50 [53]: 1.84 µM | TGI [53]: 11 µM | GI50 [54]: 2.95 µM | TGI [54]: 13.3 µM | GI50 [55]: 3.35 µM | TGI [55]: 35.1 µM | GI50 [56]: 1.99 µM | TGI [56]: 6.78 µM | GI50 [57]: 2.99 µM | TGI [57]: 21 µM | GI50 [58]: 1.21 µM | TGI [58]: > 29.7 µM
